Earlier results as cited in patent publication US9717795B2, “HPPH lyophilized powder injection for injection and preparation method thereof” (ZHEJIANG HISUN PHARMACEUTICAL CO., LTD, priority 2013, dated 2017).

Which solubility in water does the source give for HPPH here?
The solubility in water was “poor solubility in water”.
